Patent EP0115821A1, “Fluoran compounds” (HODOGAYA CHEMICAL CO., LTD., priority 1983, dated 1984)

Assay: Solubility in organic solvents
Type: physicochemical
Conditions: at 50°C; for solubility (% by weight) in organic solvents: Hyzole-296: Hyzole-296 (diallylethane compound); for solubility (% by weight) in organic solvents: KMC-113: KMC-113 (alkyl naphthalene compound)
Excerpt: The solubility of the fluoran compounds (B), (C) and (D) of the present invention in organic solvents was compared with that of the above-mentioned conventional fluoran compounds(A-1), (A-2) and (A-3), and the results are shown in Table 1.
Note: KMC-113 is an alkyl naphthalene compound manufactured by Kureha Chemical Industry Co. Ltd., and Hyzole-296 is a diallylethane compound manufactured by Nippon Petrochemical Co. Ltd. Both are organic solvents commonly used for pressure sensitive record sheets.

| Structure (SMILES) | solubility (% by weight) in organic solvents: Hyzole-296 | solubility (% by weight) in organic solvents: KMC-113 |
| --- | --- | --- |
| CCN(CC)c1ccc2c(c1)Oc1ccc(NCc3ccccc3)cc1C21OC(=O)c2ccccc21 (stereo not drawn) [Compound (A-1), 2-benzylamino-6-diethylamino fluoran] | 1.40% by weight | 0.44% by weight |
| CCCCN(CCCC)c1ccc2c(c1)Oc1ccc(NCc3ccccc3Cl)cc1C21OC(=O)c2ccccc21 (stereo not drawn) [Compound (B), 2-(2-chlorobenzylamino)-6-di-n-butylamino-fluoran] | 4.80% by weight | 3.30% by weight |
| CCCCN(CCCC)c1ccc2c(c1)Oc1ccc(NCc3cccc(Cl)c3)cc1C21OC(=O)c2ccccc21 (stereo not drawn) [Compound (C), 2-(3-chlorobenzylamino)-6-di-n-butylamino-fluoran] | 6.30% by weight | 4.20% by weight |
| CCCCN(CCCC)c1ccc2c(c1)Oc1ccc(NCc3ccc(Cl)cc3)cc1C21OC(=O)c2ccccc21 (stereo not drawn) [Compound (D), 2-(4-chlorobenzylamino)-6-di-n-butylamino-fluoran] | 7.20% by weight | 3.80% by weight |

Results, then the molecule that gave them:

| solubility (% by weight) in organic solvents: Hyzole-296 | solubility (% by weight) in organic solvents: KMC-113 | Structure (SMILES) |
| --- | --- | --- |
| 3.10% by weight | 1.90% by weight | CCN(CC)c1ccc2c(c1)Oc1ccc(NCc3ccc(Cl)cc3)cc1C21OC(=O)c2ccccc21 (stereo not drawn) [(A-3), 2-(4-chlorobenzylamino)-6-diethylamino fluoran] |
| 1.80% by weight | 1.20% by weight | CCN(CC)c1ccc2c(c1)Oc1ccc(NCc3ccccc3Cl)cc1C21OC(=O)c2ccccc21 (stereo not drawn) [Compound (A-2), 2-(2-chlorobenzylamino)-6-diethylamino fluoran] |
